≈ marks a conversion by molar mass, not a printed value. Read-outs that look alike come from different tables or passages of the source.
Legend:
[1] = RAW264.7 cytotoxicity (CellTiter-Glo); assay type: cell-based, murine; details: mouse, RAW264.7 macrophage-like cells
Method: The RAW264.7 cell line was cultured in DMEM supplemented with 10% FBS, 2-mM L-glutamine, 100-U/mL penicillin and 100-µg/mL streptomycin at 37°C and 5% CO2. Cells were seeded on black, clear-bottom 96-well plates at 2.5 × 10^5 cells/mL. Test compounds and reference compounds (BDQ and tamoxifen) were added in nine twofold serial dilutions in 100% DMSO with a top concentration of 25 µM. The plate setup included high (no growth inhibition) and low (100% growth inhibition) controls in columns 12 and 1, respectively. Medium without cell suspension was added to the low control wells. Final DMSO concentration reached 1% for test and control wells. Plates were incubated for 60 hours at 37°C and 5% CO2. Before adding the readout reagent, plates were equilibrated at room temperature for 30 min. The CellTiter-Glo version 2.0 Assay (Promega, cat. #G7572) was then added to test wells in a 1:1 ratio and mixed for 2 min on an orbital shaker. The plate was incubated for 10 min at RT to stabilize the luminescent signal. The luminescence was recorded using Glomax Discover microplate reader (Promega). Cell viability was determined by normalization of the recorded signal and establishment of the 50% cytotoxicity concentration based on the non-linear regression curve analysis (GraphPad Prism version 9). The assay was performed in duplicate in two independent experiments.

[2] = system: Mtb H37Ra^lux; test: microbe, parasite or virus in culture; assay type: cell-based, Mycobacterium tuberculosis; details: for MIC50: Mycobacterium tuberculosis, H37RA
[3] = system: Mtb H37Ra^lux in RAW264.7 murine macrophages; test: microbe, parasite or virus in culture; assay type: cell-based, Mycobacterium tuberculosis; details: for MIC50: Mycobacterium tuberculosis, H37RA, 60 h
[4] = biological target: Mycobacterium tuberculosis mycothione reductase (MtrMtb) (Mycobacterium tuberculosis, UniProt P9WHH3); test: MtrMtb luminescence-coupled enzymatic assay, confirmation screen (11-point dose-response); assay type: biochemical
Chain of Mycobacterium tuberculosis mycothione reductase (MtrMtb) (P9WHH3 whole entry, the tested form may be a part): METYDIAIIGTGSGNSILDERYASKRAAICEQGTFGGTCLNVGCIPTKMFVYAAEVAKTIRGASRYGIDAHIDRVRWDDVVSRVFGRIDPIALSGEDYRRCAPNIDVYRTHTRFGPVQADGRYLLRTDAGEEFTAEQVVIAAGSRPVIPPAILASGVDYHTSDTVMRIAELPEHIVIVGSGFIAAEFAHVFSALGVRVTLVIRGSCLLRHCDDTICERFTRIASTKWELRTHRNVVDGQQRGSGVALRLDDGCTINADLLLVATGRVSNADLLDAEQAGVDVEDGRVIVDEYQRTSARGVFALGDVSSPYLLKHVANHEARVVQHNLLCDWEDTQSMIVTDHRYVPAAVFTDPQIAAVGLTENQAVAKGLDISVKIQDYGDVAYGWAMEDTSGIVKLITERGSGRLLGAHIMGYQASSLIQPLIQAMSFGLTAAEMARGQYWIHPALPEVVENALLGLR

[5] = sulfonylamine series, fragment molecules, reference compounds
[6] = read-out: MIC50 (µM) Mtb H37Ra^lux
[7] = read-out: RAW264.7 MIC50 (µM) (Mtb H37Ra^lux)
[8] = sulfonylamine series, fragment molecules, reference compounds, read-out: IC50 (µM) MtrMtb
[9] = read-out: RAW264.7 MIC50 (Mtb H37Ra^lux)
[10] = morpholine series, acute cellular toxicity, unit not in this head
[11] = read-out: MIC50 (Mtb H37Ra^lux)
[12] = morpholine series, average IC50 in the confirmation screen (dose-response), unit not in this head, µM, read-out: qIC50 (MtrMtb)

SMILES	CC50 at 60 h [1, 5]	MIC50 [2, 6]	MIC50 [3, 7]	IC50 [4, 8]	MIC50 [3, 9]	CC50 at 60 h [1, 10]	MIC50 [2, 11]	intracellular activity in macrophage infection assay, in words [3]	anti-mycobacterial activity in whole-cell assay (Mtb H37Ra^lux MIC50), in words [2]	IC50 [4, 12]
COc1nc2ccc(Br)cc2cc1[C@@H](c1ccccc1)[C@@](O)(CCN(C)C)c1cccc2ccccc12 [Bedaquiline, reference compound]	> 50 µM	0.01 µM (≈ 0.00556 µg/mL)								
CCNc1cc(Oc2ccc(NS(=O)(=O)c3ccc(C)cc3)c(C(=O)O)c2)ccc1NS(=O)(=O)c1ccc(C)cc1 [Respiri-1031]		> 25 µM	> 25 µM	2.16 µM						
CNc1cc(Oc2ccc(NS(=O)(=O)c3ccc(C)cc3)c(C(=O)O)c2)ccc1NS(=O)(=O)c1ccc(C)cc1 [Respiri-1075]		> 25 µM	> 25 µM							
COc1cccc(-c2nc(N3CCOC[C@@H]3C)nc3c2CCNCC3)c1 [Respiri-1076]					> 25 µM	> 25 µM	> 25 µM			
C[C@H]1COCCN1c1nc2c(c(-c3ccc(F)cc3)n1)CCNCC2 [Respiri-1077]					> 25 µM	> 25 µM	> 25 µM			
C[C@H]1COCCN1c1nc2c(c(-c3ccc(Cl)cc3)n1)CCNCC2 [Respiri-1078]					14.1 µM (≈ 5.05 µg/mL)	13.7 µM	11.9 µM (≈ 4.26 µg/mL)	Intracellular activity was detected	activity	4.47 µM
C[C@H]1COCCN1c1nc2c(c(-c3cc4ccccc4o3)n1)CCNCC2 [Respiri-1079]					12.2 µM (≈ 4.44 µg/mL)	11 µM	5.7 µM (≈ 2.08 µg/mL)	Intracellular activity was detected	activity	1.99 µM
C[C@H]1COCCN1c1nc2c(c(-c3ccc4c(c3)OCO4)n1)CCNCC2 [Respiri-1080]					> 25 µM	> 5 µM	> 25 µM			5.98 µM
C[C@H]1COCCN1c1nc2c(c(-c3ccc4ncccc4c3)n1)CCNCC2 [Respiri-1081]					> 25 µM	> 25 µM	> 25 µM			3.75 µM
C[C@H]1COCCN1c1nc2c(c(-c3ccc4ccccc4c3)n1)CCNCC2 [Respiri-1082]					7.16 µM (≈ 2.68 µg/mL)	9.69 µM	4.02 µM (≈ 1.51 µg/mL)	Intracellular activity was detected	activity	3.03 µM
C[C@H]1COCCN1c1nc2c(c(-c3ccnc4ccccc34)n1)CCNCC2 [Respiri-1083]					> 25 µM	> 25 µM	> 25 µM			2.34 µM
C[C@H]1COCCN1c1cc(-c2cc3ccccc3s2)c2c(n1)CCNCC2 [Respiri-1084]					10.2 µM (≈ 3.88 µg/mL)	11.9 µM	> 25 µM	Intracellular activity was detected		2.88 µM
C[C@H]1COCCN1c1nc2c(c(-c3csc4ccccc34)n1)CCNCC2 [Respiri-1093]					> 25 µM	> 25 µM	9.94 µM (≈ 3.78 µg/mL)		activity	6.22 µM
CCCNc1cc(Oc2ccc(NS(=O)(=O)c3ccc(C)cc3)c(C(=O)O)c2)ccc1NS(=O)(=O)c1ccc(C)cc1 [Respiri-1179]	> 50 µM	> 25 µM	> 25 µM	1.13 µM						
CCN(CC)c1cc(Oc2ccc(NS(=O)(=O)c3ccc(C)cc3)c(C(=O)O)c2)ccc1NS(=O)(=O)c1ccc(C)cc1 [Respiri-1180]	> 50 µM	> 25 µM		2.38 µM						
CCCCNc1cc(Oc2ccc(NS(=O)(=O)c3ccc(C)cc3)c(C(=O)O)c2)ccc1NS(=O)(=O)c1ccc(C)cc1 [Respiri-1181]	> 50 µM	> 25 µM	> 25 µM	1.66 µM						
O=C1C=CC(=O)N1Cc1ccc2c(c1)OCO2 [Respiri-1208]	15.2 µM	> 25 µM		4.83 µM						
CN1C(=O)C2N=CNC2N(C)C1=O (centres unmarked) [Respiri-1209]	> 50 µM	> 25 µM	> 25 µM	5.63 µM						
Cn1ccnc1C(=O)c1nccn1C [Respiri-1210]	> 50 µM	> 25 µM	> 25 µM	6.11 µM						
Cc1ccn(-c2ncccn2)c(=O)c1C#N [Respiri-1211]	> 50 µM	> 25 µM	> 25 µM	13 µM						
CC/C(=C(\c1ccccc1)c1ccc(OCCN(C)C)cc1)c1ccccc1 [Tamoxifen, reference compound]	4.54 µM									
